Earlier results on 1 compound are cited in patent publication US20090226517A1, “PHARMACEUTICAL FORMULATIONS COMPRISING DULOXETINE” (priority 2008, published 2009).

SMILES strings stand for the structures.

The conditions of the data set: background statement; limited aqueous solubility.

As for `CNCC[C@H](Oc1cccc2ccccc12)c1cccs1` [Duloxetine], the BCS class result is on record as “BCS class II”.
